Assay results published in article PMC12892976, “Alkylation-based optimization of antifungal FPPS inhibitors yields a potent, broad-spectrum lipophilic zoledronate derivative” (mBio, 2025).
Converted amounts (≈) assume the structure as drawn.

What was measured:
Mucor circinelloides [1] = experiment: MIC broth microdilution (CLSI); format: cell-based; conditions: Mucor circinelloides 80-14-240-5007
Procedure: (§1) Antifungal susceptibility was determined by broth microdilution according to the CLSI guidelines described in M27-Ed4 ([16]).

Rhizopus oryzae = experiment: MIC broth microdilution (CLSI); format: cell-based; conditions: Rhizopus oryzae 04-14-364-1703
Procedure: as §1

Cryptococcus gattii = experiment: MIC broth microdilution (CLSI); format: cell-based; conditions: Cryptococcus gattii PNG27
Procedure: as §1

Fusarium oxysporum = experiment: MIC broth microdilution (CLSI); format: cell-based; conditions: Fusarium oxysporum 07-200-3012
Procedure: as §1

Lomentospora prolificans = experiment: MIC broth microdilution (CLSI); format: cell-based; conditions: Lomentospora prolificans 80-16-101-2445
Procedure: as §1

Scedosporium apiospermum [2] = experiment: MIC broth microdilution (CLSI); format: cell-based; conditions: Scedosporium apiospermum 04-16-022-2268
Procedure: as §1

Candida tropicalis = experiment: MIC broth microdilution (CLSI); format: cell-based; conditions: Candida tropicalis M230640
Procedure: as §1

Candida dubliniensis = experiment: MIC broth microdilution (CLSI); format: cell-based; conditions: Candida dubliniensis M230642
Procedure: as §1

Aspergillus udagawae [3] = experiment: MIC broth microdilution (CLSI); format: cell-based; conditions: Aspergillus udagawae 8G81
Procedure: as §1

Aspergillus felis = experiment: MIC broth microdilution (CLSI); format: cell-based; conditions: Aspergillus felis IHE87256683D6
Procedure: as §1

[4] = tested on: Aspergillus frankstonensis; experiment: MIC broth microdilution (CLSI); format: cell-based; conditions: Aspergillus frankstonensis DTO 341-F3
Procedure: as §1

Epidermophyton floccosum [5] = experiment: MIC broth microdilution (CLSI); format: cell-based; conditions: Epidermophyon floccosum R-113
Procedure: as §1

Paraphyton cookei [6] = experiment: MIC broth microdilution (CLSI); format: cell-based; conditions: Paraphyton cookei R-639
Procedure: as §1

Nannizzia nana [7] = experiment: MIC broth microdilution (CLSI); format: cell-based; conditions: Nannizzia nana R-133
Procedure: as §1

Mucor circinelloides [8] = experiment: checkerboard drug interaction (FICI, MICc); format: cell-based;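 also: simplified diagonal checkerboard screen pairing antifungals with FPPS inhibitors, FICI calculated under the Loewe additivity model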
Procedure: (§2) Drug interactions between antifungals and FPPS inhibitors were investigated using a simplified checkerboard diagonal screening method ([45]). […] FICIs were determined according to the Loewe additivity model ([17]).

[9] = tested on: Cryptococcus bacillisporus; experiment: checkerboard drug interaction (FICI, MICc); format: cell-based;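 also: interaction of antifungals with FPPS inhibitors assessed by a simplified diagonal checkerboard screen, with FICI computed under the Loewe additivity model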
Procedure: as §2

Cryptococcus tetragattii = experiment: checkerboard drug interaction (FICI, MICc); format: cell-based;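 also: simplified diagonal checkerboard screen pairing antifungals with FPPS inhibitors, with FICI calculated under the Loewe additivity model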
Procedure: as §2

Fusarium solani [10] = experiment: checkerboard drug interaction (FICI, MICc); format: cell-based;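 also: simplified diagonal checkerboard screen pairing antifungals with FPPS inhibitors, FICI derived under the Loewe additivity model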
Procedure: as §2

Scedosporium apiospermum [11] = experiment: checkerboard drug interaction (FICI, MICc); format: cell-based;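 also: simplified diagonal checkerboard screen of antifungal plus FPPS inhibitor pairs, with FICI computed under the Loewe additivity model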
Procedure: as §2

Pichia kudriavzevii = experiment: checkerboard drug interaction (FICI, MICc); format: cell-based;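 also: antifungal plus FPPS inhibitor interactions tested in a simplified diagonal checkerboard screen, with FICI calculated under the Loewe additivity model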
Procedure: as §2

Candida parapsilosis = experiment: checkerboard drug interaction (FICI, MICc); format: cell-based;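 also: simplified diagonal checkerboard screen pairing antifungals with FPPS inhibitors, with FICI computed under the Loewe additivity model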
Procedure: as §2

Aspergillus niger = experiment: checkerboard drug interaction (FICI, MICc); format: cell-based;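 also: simplified diagonal checkerboard screen pairing antifungals with FPPS inhibitors, FICI calculated under the Loewe additivity model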
Procedure: as §2

Aspergillus terreus = experiment: checkerboard drug interaction (FICI, MICc); format: cell-based;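 also: simplified diagonal checkerboard screen pairing antifungals with FPPS inhibitors, FICI derived by the Loewe additivity model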
Procedure: as §2

Aspergillus udagawae [12] = experiment: checkerboard drug interaction (FICI, MICc); format: cell-based;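 also: simplified diagonal checkerboard screen pairing antifungals with FPPS inhibitors, FICI calculated using the Loewe additivity model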
Procedure: as §2

Microsporum canis = experiment: checkerboard drug interaction (FICI, MICc); format: cell-based;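 also: simplified diagonal checkerboard screen pairing antifungals with FPPS inhibitors, FICI calculated under the Loewe additivity model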
Procedure: as §2

Nannizzia nana [13] = experiment: checkerboard drug interaction (FICI, MICc); format: cell-based;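 also: simplified diagonal checkerboard screen pairing antifungals with FPPS inhibitors, FICI calculated under the Loewe additivity model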
Procedure: as §2

Trichophyton tonsurans [14] = experiment: checkerboard drug interaction (FICI, MICc); format: cell-based;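 also: simplified diagonal checkerboard screen combining antifungals with FPPS inhibitors, with FICI calculated under the Loewe additivity model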
Procedure: as §2

Fusarium solani [15] = experiment: MIC broth microdilution (CLSI); conditions: Fusarium solani 04-16-056-1862
Procedure: as §1

Trichophyton tonsurans [16] = experiment: MIC broth microdilution (CLSI); conditions: Trichophyton tonsurans R-168
Procedure: as §1

Trichophyton soudanense = experiment: MIC broth microdilution (CLSI); conditions: Trichophyton soudanense R-167
Procedure: as §1

[17] = tested on: Aspergillus frankstonensis; experiment: checkerboard drug interaction (FICI, MICc);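 also: simplified diagonal checkerboard screen pairing antifungals with FPPS inhibitors, FICI calculated using the Loewe additivity model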
Procedure: as §2

Epidermophyton floccosum [18] = experiment: checkerboard drug interaction (FICI, MICc)
Procedure: as §2

Paraphyton cookei [19] = experiment: checkerboard drug interaction (FICI, MICc);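 also: simplified diagonal checkerboard screen pairing an antifungal with an FPPS inhibitor, FICI computed under the Loewe additivity model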
Procedure: as §2

Nannizzia gypsea = experiment: checkerboard drug interaction (FICI, MICc);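 also: simplified diagonal checkerboard screen pairing antifungals with FPPS inhibitors, FICI derived using the Loewe additivity model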
Procedure: as §2

[20] = tested on: Trichophyton interdigitale; experiment: checkerboard drug interaction (FICI, MICc);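 also: simplified diagonal checkerboard screen pairing antifungals with FPPS inhibitors, FICI values calculated under the Loewe additivity model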
Procedure: as §2

SMILES: C[C@@H]1[C@H](O)[C@@H](C)/C=C/C=C/C=C/C=C/C=C/C=C/C=C/[C@H](O[C@@H]2O[C@H](C)[C@@H](O)[C@H](N)[C@@H]2O)C[C@@H]2O[C@](O)(C[C@@H](O)C[C@@H](O)[C@H](O)CC[C@@H](O)C[C@@H](O)CC(=O)O[C@H]1C)C[C@H](O)[C@H]2C(=O)O [AMB, amphotericin B]
- MIC / MEC (Mucor circinelloides [1]): 0.25 µg/mL (≈ 0.271 µM)
- MIC / MEC (Rhizopus oryzae): 0.13 µg/mL (≈ 0.141 µM)
- MIC / MEC (Cryptococcus gattii): 0.25 µg/mL (≈ 0.271 µM)
- MIC / MEC (Fusarium oxysporum): 1 µg/mL (≈ 1.08 µM)
- MIC / MEC (Lomentospora prolificans): 16 µg/mL (≈ 17.3 µM)
- MIC / MEC (Scedosporium apiospermum [2]): 8 µg/mL (≈ 8.66 µM)
- MIC / MEC (Candida tropicalis): 1 µg/mL (≈ 1.08 µM)
- MIC / MEC (Candida dubliniensis): 0.25 µg/mL (≈ 0.271 µM)
- MIC / MEC (Aspergillus udagawae [3]): 2 µg/mL (≈ 2.16 µM)
- MIC / MEC (Aspergillus felis): 4 µg/mL (≈ 4.33 µM)
- MIC / MEC [4]: 2 µg/mL (≈ 2.16 µM)
- MIC / MEC (Epidermophyton floccosum [5]): 0.5 µg/mL (≈ 0.541 µM)
- MIC / MEC (Paraphyton cookei [6]): 1 µg/mL (≈ 1.08 µM)
- MIC / MEC (Nannizzia nana [7]): 0.5 µg/mL (≈ 0.541 µM)
- antifungal MICc (Mucor circinelloides [8]; in combination with 10-ZOL): 0.25
- antifungal MICc (Mucor circinelloides [8]; in combination with ZOL): 0.25
- antifungal MICc ([9]; in combination with 10-ZOL): 0.125
- antifungal MICc ([9]; in combination with ZOL): 1
- antifungal MICc (Cryptococcus tetragattii; in combination with 10-ZOL): 0.25
- antifungal MICc (Cryptococcus tetragattii; in combination with ZOL): 0.125
- antifungal MICc (Fusarium solani [10]; in combination with 10-ZOL): 0.25
- antifungal MICc (Fusarium solani [10]; in combination with ZOL): 0.25
- antifungal MICc (Scedosporium apiospermum [11]; in combination with 10-ZOL): 2
- antifungal MICc (Scedosporium apiospermum [11]; in combination with ZOL): 8
- antifungal MICc (Pichia kudriavzevii; in combination with 10-ZOL): 0.25
- antifungal MICc (Pichia kudriavzevii; in combination with ZOL): 0.25
- antifungal MICc (Candida parapsilosis; in combination with 10-ZOL): 0.5
- antifungal MICc (Candida parapsilosis; in combination with ZOL): 0.5
- antifungal MICc (Aspergillus niger; in combination with 10-ZOL): 0.25
- antifungal MICc (Aspergillus niger; in combination with ZOL): 0.125
- antifungal MICc (Aspergillus terreus; in combination with 10-ZOL): 0.25
- antifungal MICc (Aspergillus terreus; in combination with ZOL): 0.5
- antifungal MICc (Aspergillus udagawae [12]; in combination with 10-ZOL): 0.25
- antifungal MICc (Aspergillus udagawae [12]; in combination with ZOL): 0.25
- antifungal MICc (Microsporum canis; in combination with 10-ZOL): 1
- antifungal MICc (Microsporum canis; in combination with ZOL): 0.5
- antifungal MICc (Nannizzia nana [13]; in combination with 10-ZOL): 1
- antifungal MICc (Nannizzia nana [13]; in combination with ZOL): 0.25
- antifungal MICc (Trichophyton tonsurans [14]; in combination with 10-ZOL): 0.25
- antifungal MICc (Trichophyton tonsurans [14]; in combination with ZOL): 0.25
- MIC / MEC (Fusarium solani [15]): 0.5 µg/mL (≈ 0.541 µM)
- MIC / MEC (Trichophyton tonsurans [16]): 0.13 µg/mL (≈ 0.141 µM)
- MIC / MEC (Trichophyton soudanense): 0.5 µg/mL (≈ 0.541 µM)
- antifungal MICc ([17]; in combination with 10-ZOL): 1
- antifungal MICc ([17]; in combination with ZOL): 2
- antifungal MICc (Epidermophyton floccosum [18]; in combination with 10-ZOL): 0.5
- antifungal MICc (Epidermophyton floccosum [18]; in combination with ZOL): 0.25
- antifungal MICc (Paraphyton cookei [19]; in combination with 10-ZOL): 1
- antifungal MICc (Paraphyton cookei [19]; in combination with ZOL): 0.25
- antifungal MICc (Nannizzia gypsea; in combination with 10-ZOL): 0.5
- antifungal MICc (Nannizzia gypsea; in combination with ZOL): 0.25
- antifungal MICc ([20]; in combination with 10-ZOL): 0.25
- antifungal MICc ([20]; in combination with ZOL): 1

SMILES: CC[C@H](C)C[C@H](C)CCCCCCCCC(=O)N[C@H]1C[C@@H](O)[C@@H](NCCN)NC(=O)[C@@H]2[C@@H](O)CCN2C(=O)[C@H]([C@H](O)CCN)NC(=O)[C@H]([C@H](O)[C@@H](O)c2ccc(O)cc2)NC(=O)[C@@H]2C[C@@H](O)CN2C(=O)[C@H]([C@@H](C)O)NC1=O [CAS, caspofungin]
- MIC / MEC (Mucor circinelloides [1]): >16 µg/mL
- MIC / MEC (Rhizopus oryzae): >16 µg/mL
- MIC / MEC (Cryptococcus gattii): 8 µg/mL (≈ 7.32 µM)
- MIC / MEC (Fusarium oxysporum): >16 µg/mL
- MIC / MEC (Lomentospora prolificans): >16 µg/mL
- MIC / MEC (Scedosporium apiospermum [2]): 16 µg/mL (≈ 14.6 µM)
- MIC / MEC (Candida tropicalis): 0.06 µg/mL (≈ 0.0549 µM)
- MIC / MEC (Candida dubliniensis): 0.06 µg/mL (≈ 0.0549 µM)
- MIC / MEC (Aspergillus udagawae [3]): 2 µg/mL (≈ 1.83 µM)
- MIC / MEC (Aspergillus felis): 0.25 µg/mL (≈ 0.229 µM)
- MIC / MEC [4]: 0.13 µg/mL (≈ 0.119 µM)
- MIC / MEC (Epidermophyton floccosum [5]): 0.13 µg/mL (≈ 0.119 µM)
- MIC / MEC (Paraphyton cookei [6]): 0.25 µg/mL (≈ 0.229 µM)
- MIC / MEC (Nannizzia nana [7]): 0.13 µg/mL (≈ 0.119 µM)
- antifungal MICc (Mucor circinelloides [8]; in combination with 10-ZOL): 128
- antifungal MICc (Mucor circinelloides [8]; in combination with ZOL): 16
- antifungal MICc ([9]; in combination with 10-ZOL): 2
- antifungal MICc ([9]; in combination with ZOL): 8
- antifungal MICc (Cryptococcus tetragattii; in combination with 10-ZOL): 1
- antifungal MICc (Cryptococcus tetragattii; in combination with ZOL): 16
- antifungal MICc (Fusarium solani [10]; in combination with 10-ZOL): 16
- antifungal MICc (Fusarium solani [10]; in combination with ZOL): 64
- antifungal MICc (Scedosporium apiospermum [11]; in combination with 10-ZOL): 16
- antifungal MICc (Scedosporium apiospermum [11]; in combination with ZOL): 32
- antifungal MICc (Pichia kudriavzevii; in combination with 10-ZOL): 0.5
- antifungal MICc (Pichia kudriavzevii; in combination with ZOL): 0.5
- antifungal MICc (Candida parapsilosis; in combination with 10-ZOL): 0.25
- antifungal MICc (Candida parapsilosis; in combination with ZOL): 0.5
- antifungal MICc (Aspergillus niger; in combination with 10-ZOL): 2
- antifungal MICc (Aspergillus niger; in combination with ZOL): 4
- antifungal MICc (Aspergillus terreus; in combination with 10-ZOL): 2
- antifungal MICc (Aspergillus terreus; in combination with ZOL): 2
- antifungal MICc (Aspergillus udagawae [12]; in combination with 10-ZOL): 1
- antifungal MICc (Aspergillus udagawae [12]; in combination with ZOL): 2
- antifungal MICc (Microsporum canis; in combination with 10-ZOL): 0.25
- antifungal MICc (Microsporum canis; in combination with ZOL): 0.125
- antifungal MICc (Nannizzia nana [13]; in combination with 10-ZOL): 0.25
- antifungal MICc (Nannizzia nana [13]; in combination with ZOL): 0.033
- antifungal MICc (Trichophyton tonsurans [14]; in combination with 10-ZOL): 2
- antifungal MICc (Trichophyton tonsurans [14]; in combination with ZOL): 0.25
- MIC / MEC (Fusarium solani [15]): 16 µg/mL (≈ 14.6 µM)
- MIC / MEC (Trichophyton tonsurans [16]): 0.5 µg/mL (≈ 0.457 µM)
- MIC / MEC (Trichophyton soudanense): 0.5 µg/mL (≈ 0.457 µM)
- antifungal MICc ([17]; in combination with 10-ZOL): 0.125
- antifungal MICc ([17]; in combination with ZOL): 0.5
- antifungal MICc (Epidermophyton floccosum [18]; in combination with 10-ZOL): 0.125
- antifungal MICc (Epidermophyton floccosum [18]; in combination with ZOL): 0.25
- antifungal MICc (Paraphyton cookei [19]; in combination with 10-ZOL): 0.25
- antifungal MICc (Paraphyton cookei [19]; in combination with ZOL): 0.125
- antifungal MICc (Nannizzia gypsea; in combination with 10-ZOL): 0.25
- antifungal MICc (Nannizzia gypsea; in combination with ZOL): 0.5
- antifungal MICc ([20]; in combination with 10-ZOL): 0.5
- antifungal MICc ([20]; in combination with ZOL): 0.25
